The test system of one data set is Acinetobacter baumannii. Description: Antibacterial activity against carbapenem-resistant Acinetobacter baumannii (12-666) assessed as inhibition of microbial growth up to 50 ug/ml incubated for 24 hrs by microdilution assay. Type of data set: functional.
Data set [1] has as its system Escherichia coli. As to the kind of experiment: Antibacterial activity against extended-spectrum beta-lactamase-positive Escherichia coli (14-2081) assessed as inhibition of microbial growth up to 50 ug/ml incubated for 24 hrs by microdilution assay. It counts as functional. On the technique in general: Dilution methods test growth across graded concentrations, often in twofold steps.

Data set [2] has as its system Escherichia coli. Description: Antibacterial activity against oxacillin-resistant Escherichia coli OXA-48 assessed as inhibition of microbial growth up to 50 ug/ml incubated for 24 hrs by microdilution assay. It counts as functional.
The next data set has as its system Pseudomonas aeruginosa. Description: Antibacterial activity against carbapenem-resistant Pseudomonas aeruginosa (13-1391) assessed as inhibition of microbial growth up to 50 ug/ml incubated for 48 hrs by microdilution assay. Type of data set: functional.
Data set [3] relates to Klebsiella pneumoniae. Description: Antibacterial activity against NDM-1 positive Klebsiella pneumoniae (14-3335) assessed as inhibition of microbial growth up to 50 ug/ml incubated for 24 hrs by microdilution assay. Type of data set: functional.
Data set [4] concerns Klebsiella pneumoniae. As to the kind of experiment: Antibacterial activity against extended-spectrum beta-lactamase-positive Klebsiella pneumoniae (14-2081) assessed as inhibition of microbial growth up to 50 ug/ml incubated for 24 hrs by microdilution assay. Type of data set: functional.
A further data set concerns Providencia rettgeri. As to the kind of experiment: Antibacterial activity against NDM-1 positive Providencia rettgeri assessed as inhibition of microbial growth up to 50 ug/ml incubated for 24 hrs by microdilution assay. It counts as functional.
In data set [5] the test system is Stenotrophomonas maltophilia. Description: Antibacterial activity against trimethoprim-sulfamethoxazole-resistant Stenotrophomonas maltophilia assessed as inhibition of microbial growth up to 50 ug/ml incubated for 24 hrs by microdilution assay. Type of data set: functional.
Another data set relates to Vero. Description: Cytotoxicity against African green monkey Vero cells assessed as reduction in cell viability incubated for 24 hrs by trypan blue staining based assay. The conditions noted are these: Chlorocebus sabaeus.
Data set [6] concerns Mycobacterium tuberculosis. Description: Antimycobacterial activity against Mycobacterium tuberculosis H37Rv ATCC 27294 assessed as inhibition of mycobacterial growth incubated for 2 weeks by MABA method. Type of data set: functional. Conditions: for MIC: Mycobacterium tuberculosis, H37Rv ATCC 27294, 336 h. A general note: The colour change of resazurin is a common sign of viable cells or microbes.

Data set [7] in a line: Selectivity index, ratio of IC50 for cytotoxicity against African green monkey Vero cells to MIC for Mycobacterium tuberculosis H37Rv ATCC 27294. Type of data set: toxicity, cell-based. The conditions noted are these: read-out: Selectivity Index.
Data set [8] relates to Mycobacterium tuberculosis. As to the kind of experiment: Antimycobacterial activity against Mycobacterium tuberculosis H37Rv ATCC 27294 assessed as inhibition of mycobacterial growth up to 50 ug/ml incubated for 2 weeks by MABA method. Type of data set: functional.

As a reminder, the IC50 is the point on the concentration scale where inhibition reaches its midpoint. As usually defined, the MIC is the smallest concentration in the dilution series that meets the test's criterion for growth inhibition.

≈ marks a conversion by molar mass, not a printed value. Calls of active or inactive are those of the source.

On to `COc1cc(C[C@@H](C)[C@@H](C)Cc2ccc(OC(C)=O)c(OC)c2)ccc1OC(C)=O`, for which the outcome with Acinetobacter baumannii, with Escherichia coli [1], in the data set with Escherichia coli [2], with Pseudomonas aeruginosa, in the data set on Klebsiella pneumoniae [3] and in the data set with Klebsiella pneumoniae [4] was inactive. Also, the result (with Providencia rettgeri; in [5]) was inactive. Besides, in the data set on Vero, the IC50 amounted to 95.1 µg/mL (≈ 230 µM). In addition, the “-logMIC” value in [6] worked out at 4.23. Further, in data set [6], the MIC is 50 µg/mL (≈ 121 µM). In addition, in data set [7], the selectivity ratio was found to be 1.9.
In the case of `CCCCCCCC/C=C\CCCCCCCC(=O)Oc1ccc(C[C@@H](C)[C@@H](C)Cc2ccc(OC(=O)CCCCCCC/C=C\CCCCCCCC)c(OC)c2)cc1OC`, the outcome in the data set on Acinetobacter baumannii, in the data set with Escherichia coli [1], with Escherichia coli [2], in the data set on Pseudomonas aeruginosa, with Klebsiella pneumoniae [3] and in the data set on Klebsiella pneumoniae [4] was inactive. In addition, the result (in the data set with Providencia rettgeri; in [5]) was inactive. In [6], the “-logMIC” value amounted to 4.88. Besides, the “growth inhibition (GI)” value in data set [8] is “inactive”.
As to `COc1cc(C[C@@H](C)[C@@H](C)Cc2ccc(OCCN3CCCC3)c(OC)c2)ccc1OCCN1CCCC1`, the result with Acinetobacter baumannii, in the data set on Escherichia coli [1], in the data set with Escherichia coli [2], with Pseudomonas aeruginosa, with Klebsiella pneumoniae [3] and in the data set on Klebsiella pneumoniae [4] was inactive. The result (in the data set on Providencia rettgeri; in data set [5]) was inactive. In the data set on Vero, the IC50 is more than 487 µg/mL. Moreover, the MIC in data set [6] was 25 µg/mL (≈ 47.6 µM). Besides, the selectivity ratio in data set [7] is more than 19.5.
Consider `COc1cc(C[C@@H](C)[C@@H](C)Cc2ccc(OC(=O)c3cccnc3)c(OC)c2)ccc1OC(=O)c1cccnc1`, for which the result with Acinetobacter baumannii, in the data set with Escherichia coli [1], in the data set with Escherichia coli [2], in the data set with Pseudomonas aeruginosa, in the data set with Klebsiella pneumoniae [3] and in the data set with Klebsiella pneumoniae [4] was inactive. Also, the result (with Providencia rettgeri; in [5]) was inactive. The IC50 in the data set on Vero amounted to 36.3 µg/mL (≈ 67.1 µM). Further, the “-logMIC” value in [6] amounted to 4.2. Moreover, the MIC in data set [6] amounted to 12.5 µg/mL (≈ 23.1 µM). For the same compound, in [7], the selectivity ratio was 2.9.
On to `COc1cc(C[C@@H](C)[C@@H](C)Cc2ccc(OCCN(C)C)c(OC)c2)ccc1OCCN(C)C`, for which the result with Acinetobacter baumannii, in the data set with Escherichia coli [1], with Escherichia coli [2], in the data set on Pseudomonas aeruginosa, in the data set with Klebsiella pneumoniae [3] and in the data set on Klebsiella pneumoniae [4] was inactive. Moreover, the result (in the data set with Providencia rettgeri; in data set [5]) was inactive. Besides, the IC50 with Vero is more than 487 µg/mL. Further, the “-logMIC” value in data set [6] stood at 4.32. Besides, in data set [6], the MIC was 6.25 µg/mL (≈ 13.2 µM). The selectivity ratio in data set [7] is more than 77.9.
As to `CCN(CC)CCOc1ccc(C[C@@H](C)[C@@H](C)Cc2ccc(OCCN(CC)CC)c(OC)c2)cc1OC`, the result with Acinetobacter baumannii, with Escherichia coli [1], in the data set with Escherichia coli [2], with Pseudomonas aeruginosa, in the data set on Klebsiella pneumoniae [3] and with Klebsiella pneumoniae [4] was inactive. The outcome (in the data set with Providencia rettgeri; in [5]) was inactive. The IC50 in the data set on Vero amounted to 36.2 µg/mL (≈ 68.5 µM). Further, in data set [6], the “-logMIC” value came out at 4.55. Also, the MIC in data set [6] was determined as 25 µg/mL (≈ 47.3 µM). Moreover, the selectivity ratio in data set [7] was 1.45.
For the compound `COc1cc(C[C@@H](C)[C@@H](C)Cc2ccc(OC(=O)c3cnccn3)c(OC)c2)ccc1OC(=O)c1cnccn1`, the outcome with Acinetobacter baumannii, in the data set with Escherichia coli [1], in the data set on Escherichia coli [2], with Pseudomonas aeruginosa, in the data set on Klebsiella pneumoniae [3] and in the data set with Klebsiella pneumoniae [4] was inactive. Moreover, the outcome (in the data set with Providencia rettgeri; in [5]) was inactive. Moreover, in data set [6], the “-logMIC” value is 4.23. Moreover, in [6], the MIC came to 50 µg/mL (≈ 92.2 µM).
Consider `COc1cc(C[C@@H](C)[C@@H](C)Cc2ccc(OC(=O)c3ccc(Br)cc3)c(OC)c2)ccc1O` (racemic), for which the result with Acinetobacter baumannii, in the data set with Escherichia coli [1], in the data set on Escherichia coli [2], in the data set with Pseudomonas aeruginosa, with Klebsiella pneumoniae [3] and in the data set on Klebsiella pneumoniae [4] was inactive. The result (in the data set with Providencia rettgeri; in data set [5]) was inactive. The IC50 in the data set on Vero was 112 µg/mL (≈ 217 µM). For the same compound, in data set [6], the “-logMIC” value stood at 4.58. Further, in data set [6], the MIC came to 12.5 µg/mL (≈ 24.3 µM). Further, the selectivity ratio in data set [7] was found to be 8.93.
As for `COc1cc(C[C@@H](C)[C@@H](C)Cc2ccc(OC(=O)c3ccccc3[N+](=O)[O-])c(OC)c2)ccc1O` (racemic), the result in the data set on Acinetobacter baumannii, in the data set on Escherichia coli [1], in the data set with Escherichia coli [2], in the data set with Pseudomonas aeruginosa, in the data set with Klebsiella pneumoniae [3] and in the data set on Klebsiella pneumoniae [4] was inactive. Moreover, the outcome (in the data set on Providencia rettgeri; in data set [5]) was inactive. For the same compound, in the data set with Vero, the IC50 came out at 97.1 µg/mL (≈ 202 µM). Besides, the “-logMIC” value in data set [6] is reported as 3.94. In addition, the MIC in [6] came to 12.5 µg/mL (≈ 26.1 µM). For the same compound, the selectivity ratio in [7] was found to be 7.76.
`COc1cc(C[C@@H](C)[C@@H](C)Cc2ccc(OC(=O)c3ccccc3)c(OC)c2)ccc1O` (racemic): the result in the data set on Acinetobacter baumannii, in the data set on Escherichia coli [1], with Escherichia coli [2], with Pseudomonas aeruginosa, with Klebsiella pneumoniae [3] and in the data set with Klebsiella pneumoniae [4] was inactive. Moreover, the result (in the data set on Providencia rettgeri; in data set [5]) was inactive. The IC50 in the data set on Vero was 125 µg/mL (≈ 287 µM). Besides, in [6], the “-logMIC” value came to 4.61. In addition, the MIC in [6] was 12.5 µg/mL (≈ 28.8 µM). For the same compound, in data set [7], the selectivity ratio worked out at 9.97.
On to `COc1cc(C[C@@H](C)[C@@H](C)Cc2ccc(OCCN3CCCC3)c(OC)c2)ccc1O` (racemic), for which the outcome with Acinetobacter baumannii, in the data set on Escherichia coli [1], in the data set on Escherichia coli [2], in the data set with Pseudomonas aeruginosa, in the data set with Klebsiella pneumoniae [3] and with Klebsiella pneumoniae [4] was inactive. Further, the outcome (in the data set on Providencia rettgeri; in data set [5]) was inactive. Further, the IC50 with Vero is more than 487 µg/mL. The “-logMIC” value in [6] came to 5.25. Also, in data set [6], the MIC is 12.5 µg/mL (≈ 29.2 µM). In addition, the selectivity ratio in [7] was more than 39.
With `COc1cc(C[C@@H](C)[C@@H](C)Cc2ccc(OC(=O)c3cccnc3)c(OC)c2)ccc1O` (racemic), the result in the data set with Acinetobacter baumannii, with Escherichia coli [1], in the data set on Escherichia coli [2], in the data set with Pseudomonas aeruginosa, in the data set with Klebsiella pneumoniae [3] and in the data set with Klebsiella pneumoniae [4] was inactive. Also, the result (in the data set with Providencia rettgeri; in data set [5]) was inactive. Further, the IC50 in the data set on Vero was determined as 71.4 µg/mL (≈ 164 µM). In data set [6], the “-logMIC” value is on record as 4.05. In addition, the MIC in data set [6] was found to be 50 µg/mL (≈ 115 µM). Moreover, the selectivity ratio in data set [7] worked out at 1.43.
Take `COc1cc(C[C@@H](C)[C@@H](C)Cc2ccc(OCCN(C)C)c(OC)c2)ccc1O` (racemic): the result in the data set with Acinetobacter baumannii, with Escherichia coli [1], with Escherichia coli [2], in the data set on Pseudomonas aeruginosa, in the data set on Klebsiella pneumoniae [3] and with Klebsiella pneumoniae [4] was inactive. Further, the outcome (with Providencia rettgeri; in [5]) was inactive. Besides, the IC50 in the data set with Vero came to 327 µg/mL (≈ 813 µM). Also, the “-logMIC” value in data set [6] amounted to 4.53. The MIC in data set [6] is 12.5 µg/mL (≈ 31.1 µM). Also, the selectivity ratio in data set [7] stood at 26.1.
Consider `COc1cc(C[C@@H](C)[C@@H](C)Cc2ccc(OCCN3CCOCC3)c(OC)c2)ccc1O` (racemic), for which the result with Acinetobacter baumannii, in the data set with Escherichia coli [1], in the data set on Escherichia coli [2], in the data set on Pseudomonas aeruginosa, with Klebsiella pneumoniae [3] and in the data set with Klebsiella pneumoniae [4] was inactive. The outcome (in the data set on Providencia rettgeri; in [5]) was inactive. In addition, the “growth inhibition (GI)” value in data set [8] was “inactive”.
For `CC[C@@H](CO)NCCN[C@@H](CC)CO` [ETHAMBUTOL], the IC50 with Vero was 391 µg/mL (≈ 1910 µM). Moreover, the MIC in data set [6] amounted to 3.12 µg/mL (≈ 15.3 µM). Also, in data set [7], the selectivity ratio was 125.

The record behind these values is ChEMBL document CHEMBL4043204, “meso-Dihydroguaiaretic acid derivatives with antibacterial and antimycobacterial activity” (Bioorg Med Chem, 2017).
